# Measured values: patent US5180746A, “Aralkylamine compounds” (priority 1989, dated 1993)
# pIC50: −log10 of the molar value. Structures can show the parent of a compound that is named as a salt.
# Biological target: T1, cholinesterase (Rattus norvegicus, UniProt P37136)
# T1 construct: The S1 fraction of a cerebral cortex homogenate from male Wistar rats; from tissue; host or cells: cerebral cortex homogenate (S1 fraction), male Wistar rats
# Assay: anticholinesterase activity using (acetyl-[3H])-acetylcholine, S1 fraction of rat cerebral cortex homogenate
# Format: biochemical, male Wistar rats
# Conditions: (acetyl-[3H])-acetylcholine substrate, 30 minutes incubation
# Procedure: The anticholinesterase activity of the compound of the invention was evaluated using (acetyl-[^3 H])-acetylcholine. The S1 fraction of a cerebral cortex homogenate from male Wistar rats was used as the cholinesterase source, (acetyl-[^3 H])-acetylcholine as the substrate and the test compound of the invention as the test substance. The incubation was carried out for 30 minutes and after the reaction was terminated, the system was shaken with a toluene scintillator to thereby transfer [^3 H]-acetic acid into the toluene layer. The radioactivity in the toluene layer was then measured with a liquid scintillation counter to estimate the anticholinesterase activity of the test compound.
# The anticholinesterase activity of the test compound was expressed in 50% inhibitory concentration (IC50).
# T1 sequence (P37136 32-614): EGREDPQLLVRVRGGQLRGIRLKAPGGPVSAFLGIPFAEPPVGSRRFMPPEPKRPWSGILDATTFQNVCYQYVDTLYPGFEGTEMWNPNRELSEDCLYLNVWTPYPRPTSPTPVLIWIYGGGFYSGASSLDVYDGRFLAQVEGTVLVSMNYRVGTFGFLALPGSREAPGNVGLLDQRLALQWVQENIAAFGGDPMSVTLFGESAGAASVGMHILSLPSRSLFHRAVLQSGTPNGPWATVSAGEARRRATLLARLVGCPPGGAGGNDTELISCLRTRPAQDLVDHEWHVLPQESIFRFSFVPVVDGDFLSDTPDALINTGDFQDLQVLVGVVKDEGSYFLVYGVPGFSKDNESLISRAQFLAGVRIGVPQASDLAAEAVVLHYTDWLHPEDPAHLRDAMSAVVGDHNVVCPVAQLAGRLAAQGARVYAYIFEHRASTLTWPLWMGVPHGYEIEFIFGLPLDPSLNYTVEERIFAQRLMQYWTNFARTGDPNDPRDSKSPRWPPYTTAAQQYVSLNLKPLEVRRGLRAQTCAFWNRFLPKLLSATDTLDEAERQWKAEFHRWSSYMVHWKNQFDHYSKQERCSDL
row,Structure (SMILES),pIC50
1,CCN(CCCCC1Cc2cc(OC)ccc2C1=O)Cc1ccccc1OC (stereo not shown) [Example 3-10],6.96
2,CCN(CCCC1Cc2cc(OC)c(OC)cc2C1=O)Cc1ccccc1OC (stereo not shown) [Example 3-6],7.85
3,CCN(CCCC1Cc2cc(OC)c(OC)cc2C1=O)Cc1cccc(O)c1 (stereo not shown) [Example 3-13],6.68
4,CCN(CCC1Cc2cc(OC)c(OC)cc2C1=O)Cc1ccccc1OC (stereo not shown) [Example 3-5],6.17
5,"CCN(CCCCC1Cc2cc(N3CCCC3)ccc2C1=O)Cc1ccccc1 (stereo not shown) [Example 7, 2-[4-[N-Ethyl-N-(phenylmethyl)amino]butyl]-5-pyrrolidino-1-indanone fumarate]",6.84
6,CCN(CCCCC1Cc2cc(OC)c(OC)cc2C1=O)Cc1cccc(OC)c1 (stereo not shown) [Example 3-8],6.96
7,CCN(CCCCCCC1Cc2cc(OC)c(OC)cc2C1=O)Cc1ccccc1OC (stereo not shown) [Example 3-15],7.00
8,CCN(CCCCC1Cc2cc(OC)c(OC)cc2C1=O)Cc1ccccc1 (stereo not shown) [Example 3-3],7.12
9,CCN(CCCCC1Cc2cc(OC)c(OC)c(OC)c2C1=O)Cc1ccccc1OC (stereo not shown) [Example 3-9],7.05
10,CCN(CCCCCC1Cc2cc(OC)c(OC)cc2C1=O)Cc1ccccc1 (stereo not shown) [Example 3-1],6.92
11,"CCN(CCCCCC1Cc2cc(OC)c(OC)cc2C1O)Cc1ccccc1OC (stereo not shown) [Example 4, 1,2-Dihydro-5,6-dimethoxy-2-[5-[N-ethyl-N-[(2-methoxyphenyl)methyl]amino]pentyl]-1-hydroxyindene]",6.80
12,CCN(CCCC1Cc2cc(OC)c(OC)cc2C1=O)Cc1ccccc1OC (stereo not shown) [Example 3-4],7.96
13,"CCN(CCCCC1Cc2cc(N3CCCC3)ccc2C1=O)Cc1ccccc1OC (stereo not shown) [Example 8, 2-[4-[N-Ethyl-N-[(2-methoxyphenyl)methyl]amino]butyl]-5-pyrrolidino-1-indanone fumarate]",7.09
14,CCN(CCCCC1Cc2cc(OC)c(OC)cc2C1=O)Cc1cccc(O)c1 (stereo not shown) [Example 3-14],6.20
15,CCN(CCCCC1Cc2cc(OC)c(OC)cc2C1=O)Cc1ccccc1OC (stereo not shown) [Example 3-2],7.70
16,"CCN(CCCCCC1=Cc2cc(OC)c(OC)cc2C1)Cc1ccccc1OC [Example 5, 5,6-Dimethoxy-2-[5-[N-ethyl-N-[(2-methoxyphenyl)methyl]amino]pentyl]indene hydrochloride]",6.22
17,CCN(CCCCCC1CCc2cc(OC)ccc2C1=O)Cc1ccccc1OC (stereo not shown) [Example 3-12],6.89
18,CCN(CCCCC1Cc2cc3c(cc2C1=O)OCO3)Cc1ccccc1OC (stereo not shown) [Example 3-11],6.77
19,CCN(CCCCC1Cc2cc(OC)c(OC)cc2C1=O)Cc1ccccc1OC (stereo not shown) [Example 3-7],7.57
